Experimental data as given in publication PMC5175178, “Development of an in-vivo active reversible butyrylcholinesterase inhibitor” (Scientific Reports, 2016).
Where two headings read alike, the source gives them in different places.

Experiments:
mice = assay: Rotarod test, motor coordination; conditions: for Time spent on the rotarod (s ±SEM) 6 rpm / Time spent on the rotarod (s ±SEM) 18 rpm / Time spent on the rotarod (s ±SEM) 24 rpm: 60 min
Protocol: The mice had free access to food and water, and the ambient temperature and humidity of the room were kept constant throughout all of the tests. For the behavioral tasks, the mice were selected at random, and each group consisted of 8 to 10 mice dose^−1. The experiments were performed between 08:00 and 14:00. Immediately after these in-vivo assays, the animals were euthanized by cervical dislocation. […] All efforts were made to minimize the number of mice used and their suffering.
Before the test, the mice were trained for three consecutive days on the rotarod apparatus (Rotarod apparatus, May Commat RR0711, Turkey; rod diameter, 2 cm) that was rotating at a fixed speed of 18 rotations per minute (rpm). In each training session, the mice were put on the rotating rod for 3 min, with an unlimited number of trials. The correct experimentation was performed 24 h after the last training session. […] Motor impairments were defined as the inability to remain on the rotarod apparatus for 1 min, and were expressed as the mean time spent on the rotarod^36.

HepG2 cells = assay: Cytotoxicity in HepG2 cells, MTS metabolic activity assay; conditions: 24 h
Protocol: After 24 h (a) or 48 h (b), the cell viability was evaluated using the MTS assay. The control group (DMSO) was considered as 100% cell viability. Data are means ±SD of at least three independent experiments, each carried out in triplicate (a) and quadruplicate (b).
HepG2 cells (1 ×10^4 cells/well) were treated for 24 h with the appropriate concentrations of the compounds of interest or the corresponding vehicle (control cells), in triplicates in 96-well plates. The metabolic activities were determined using the CellTiter 96 Aqueous One Solution Cell Proliferation Assay (Promega, WI/USA), according to the manufacturer instructions.

in vitro = in vitro ADME; parameters: protein bound: dose or concentration left out as unconfirmed; conditions: for recovery at 4 h, 10 µM: human, pH 7.4, human plasma protein binding assay
Protocol: The experiment was accepted in accordance with Eurofins validation Standard Operating Procedure.
The equilibrium dialysis technique was used to separate the fraction of the bound to human plasma protein. The assay was performed in a 96-well format in a dialysis block constructed from Teflon to minimize the unspecific binding^25. Plasma from human was used as the default protein containing matrix. […] The dialysate compartment was loaded with the phosphate buffered saline (PBS, pH 7.4), and the sample side was loaded with equal volume of the spiked protein matrix. The dialysis plate was then sealed and incubated at 37 °C for 4 h. A control sample (n = 2) was prepared from the spiked protein matrix in the same manner as the assay sample (without dialysis). The control sample served as the basis for the recovery determination. After the incubation, samples were taken from each compartment, diluted with phosphate buffer followed by addition of acetonitrile and centrifugation. The supernatants were then used for HPLC-MS/MS analysis using selected reaction monitoring. The HPLC conditions consisted of a binary LC pump with autosampler, a C18 column (2 × 20 mm), and gradient elution.
Protein binding (%) = (Areap-Areab) / Areap ×100 (3),
Recovery (%) = (Areap-Areab) / Areac ×100 (4),
The recovery determination serves as an indicator of reliability of the calculated protein binding value. Low recovery would indicate that the test compound is lost during the course of the assay, most likely due to non-specific binding or degradation.

[1] = tested on: scopolamine-induced memory impairment in mice; assay: Morris water maze task, scopolamine-induced memory impairment
Protocol: In this task the time taken to reach the hidden platform (i.e., the escape latency time), the distance travelled, and the mean speed of swimming are recorded for each experimental group. […] For the behavioral tasks, the mice were selected at random, and each group consisted of 8 to 10 mice dose^−1. The experiments were performed between 08:00 and 14:00. Immediately after these in-vivo assays, the animals were euthanized by cervical dislocation. […] All efforts were made to minimize the number of mice used and their suffering.
The Morris water maze is a circular, plastic, grey-painted pool (diameter, 120 cm; height, 60 cm), filled with water (up to about 48 cm below the edge, to prevent an animal from jumping out) that was maintained at 23 ±1 °C. The pool was divided into four equal quadrants (compass locations: NE, NW, SE, SW) by a computerized video tracking system (SMART, ver. 3.0; Panlab, Spain). An escape platform (diameter, 11 cm; height, 47 cm) at a fixed location (the center of the NW quadrant; i.e., the target quadrant). The escape platform was made of transparent Plexiglas and was immersed 1 cm under the surface of water; this was invisible to the swimming mouse. The maze was lighted with the intensity of 45 lx.
During the spatial acquisition trial (six consecutive days), the mice were assigned to training sessions (four training sessions a day; 4 h apart) in which the mice were trained to escape from the water by reaching the hidden platform, the location of which could be identified using distal extra-maze cues (A4-sized sheets of black laminated paper with colored geometric symbols) attached to the room walls to provide navigation points^31. Visual cues had different colors and dimensions, and were kept constant during the whole experiment^31,32. The whole experiment was conducted by an experimenter who remained always stationary in a constant location, thus serving as an additional distal cue for the swimming mice. […] The time taken to reach the hidden platform (escape latency time), distance travelled to reach the platform, and mean speed were recorded in each experimental group and analyzed.
On the seventh day (24 h after the last training) the platform was removed from the pool and a probe trial was performed (without drug treatment). Each animal was released from a different start point and was allowed to swim for 60 s. […] Latency time to the first crossing of the former platform location (target zone), number of crossings of the target zone, time spent in the target NW quadrant, total distance, distance spent in NW quadrant, entries into the NW quadrant, and mean speed were measured^31.

[2] = human plasma, 10 µM, 37 °C, 4 h
[3] = probe trial day 7, scopolamine + 30 mg kg^–1

Protocol for Human plasma stability: The plasma metabolic stability and hepatic clearance were estimated by the substrate depletion method.
The incubation was performed in a 37 °C water bath for 2 h. An aliquot of the incubation mixture was transferred to acetonitrile at 0, 0.5, 1, 1.5 and 2 h, respectively. Samples were then mixed and centrifuged. Supernatants were used for HPLC-MS/MS analysis using selected reaction monitoring, and peak areas were recorded for each analyte. The HPLC conditions consisted of a binary LC pump with autosampler, a C18 column (2 × 20 mm), and gradient elution. The area of precursor compound remaining after each time points relative to the amount remaining at time zero, expressed as percent, is calculated. Subsequently, the half-life (t1/2) was estimated from the slope of the initial linear range of the logarithmic curve of the compound remaining (%) versus time, assuming first order kinetics.

Compound: COCCN(CC1CCCN(Cc2ccccc2)C1)S(=O)(=O)c1ccc2ccccc2c1 (racemic) [compound 2, (±)-N-((1-benzylpiperidin-3-yl)methyl)-N-(2-methoxyethyl)naphthalene-2-sulfonamide]
- Time spent on the rotarod (s ±SEM) 6 rpm (mice; 30 mg kg^-1 IP): 60.0 s
- Time spent on the rotarod (s ±SEM) 18 rpm (mice; 30 mg kg^-1 IP): 60.0 s
- Time spent on the rotarod (s ±SEM) 24 rpm (mice; 30 mg kg^-1 IP): 60 s
- Time spent on the rotarod (s ±SEM) 6 rpm (mice; 100 mg kg^-1 IP): 60.0 s
- Time spent on the rotarod (s ±SEM) 18 rpm (mice; 100 mg kg^-1 IP): 53.3 ± 6.8 s
- Time spent on the rotarod (s ±SEM) 24 rpm (mice; 100 mg kg^-1 IP): 52.3 ± 6.8 s
- impact on motor coordination (mice; even at 100 mg kg^−1): did not induce motor deficits
- half-life in human plasma (Human plasma stability; discussion): > 2 h
- Half-Life t1/2 (min) 1st (Human plasma stability; human plasma, 1 µM, 37 °C): 223.1 min
- Half-Life t1/2 (min) 2nd (Human plasma stability; human plasma, 1 µM, 37 °C): 206.7 min
- Half-Life t1/2 (min) Mean (Human plasma stability; human plasma, 1 µM, 37 °C): >120 min
- LD50 HepG2 cells (HepG2 cells): 58.67 µM
- protein bound (in vitro; human blood plasma, equilibrium dialysis): 96%
- Protein Bound (%) 1st (in vitro; [2]): 96.0%
- Protein Bound (%) 2nd (in vitro; [2]): 95.3%
- Protein Bound (%) Mean (in vitro; [2]): 96%
- recovery at 4 h, 10 µM (in vitro; read-out: Recovery (%) 1st): 101%
- recovery at 4 h, 10 µM (in vitro; read-out: Recovery (%) 2nd): 99%
- recovery at 4 h, 10 µM (in vitro; read-out: Recovery (%) Mean): 100%
- distance travelled to reach the platform ([1]; day 3, scopolamine + 30 mg kg^−1): 5.38 m
- distance travelled to reach the platform ([1]; day 5, scopolamine + 30 mg kg^−1): 1.69 m
- Distance in goal quadrant (% ±SEM) [1, 3]: 45.35 ±2.6 F[2,25] = 0.2035; NS %
- Entries in zone NW (n ±SEM) [1, 3]: 7.3 ±0.7 F[2,25] = 14.59; p <0.0001 n
- Latency time (s ±SEM) [1, 3]: 1.2 ±0.4 F[2,25] = 1.792; NS s
- Number of NW zone crossings (n ±SEM) [1, 3]: 2.6 ±0.5 F[2,25] = 2.182; NS n
- Time in target (NW) quadrant (s ±SEM) [1, 3]: 29.3 ±1.5 F[2,25] = 0.8737; NS s
- Total distance covered (m ±SEM) [1, 3]: 11.5 ±0.6 F2,25] = 0.3439; NS m
- mean speed of swimming ([1]; scopolamine + compound 2 30 mg kg^−1 (vehicle 0.17)): 0.16 m s^−1
